The source of these data is patent US7928140B2, “Benzothiazole PI3 kinase modulators for cancer treatment” (Amgen Inc., priority 2007, dated 2011).

For test [1], the system named is phosphorylation of Serine 473 in Akt, HCT 116 human colon carcinoma cells. Put plainly: Cell-based phospho-AKT Ser473 assay (MSD sandwich immunoassay, IGF-1 stimulated). The conditions noted are these: Homo sapiens, HCT-116, HCT 116 cells; read-out: HCT 116 pAKT IC50. The essentials:
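HCT116 cells, 16,000/well and plated overnight, were pre-treated with serially diluted compound for 2 h at 37 °C, then stimulated with IGF-1 at 100 ng/ml for 15 min. Lysates were assayed for Akt pSer473 by MSD sandwich electrochemiluminescence, and IC50 was derived from dose-response data.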

The next test has as its target T1, PI3K α (Homo sapiens, UniProt P42336).
T1 construct: Full length p110 subunits of PI3K α, β and δ, N-terminally labeled with polyHis tag; polyHis (N); made in house; host or cells: Sf9 insect cells (baculovirus)
Put plainly: In vitro PI3 kinase enzyme assay (alpha), ATP loss, bioluminescence.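 Also: purified p110α/p85 heterodimer acting on PtdIns(4,5)P2 at room temperature, remaining ATP read by luminescence, inhibition scaled between compound-free wells with and without enzyme.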 The class given is biochemical. The conditions noted are these: read-out: PI3Kα ATP loss IC50.

For another test, the target named is T2, PI3K β (Homo sapiens, UniProt P42338).
T2 construct: Full length p110 subunits of PI3K α, β and δ, N-terminally labeled with polyHis tag; polyHis (N); made in house; host or cells: Sf9 insect cells (baculovirus)
T2 sequence (P42338 whole entry): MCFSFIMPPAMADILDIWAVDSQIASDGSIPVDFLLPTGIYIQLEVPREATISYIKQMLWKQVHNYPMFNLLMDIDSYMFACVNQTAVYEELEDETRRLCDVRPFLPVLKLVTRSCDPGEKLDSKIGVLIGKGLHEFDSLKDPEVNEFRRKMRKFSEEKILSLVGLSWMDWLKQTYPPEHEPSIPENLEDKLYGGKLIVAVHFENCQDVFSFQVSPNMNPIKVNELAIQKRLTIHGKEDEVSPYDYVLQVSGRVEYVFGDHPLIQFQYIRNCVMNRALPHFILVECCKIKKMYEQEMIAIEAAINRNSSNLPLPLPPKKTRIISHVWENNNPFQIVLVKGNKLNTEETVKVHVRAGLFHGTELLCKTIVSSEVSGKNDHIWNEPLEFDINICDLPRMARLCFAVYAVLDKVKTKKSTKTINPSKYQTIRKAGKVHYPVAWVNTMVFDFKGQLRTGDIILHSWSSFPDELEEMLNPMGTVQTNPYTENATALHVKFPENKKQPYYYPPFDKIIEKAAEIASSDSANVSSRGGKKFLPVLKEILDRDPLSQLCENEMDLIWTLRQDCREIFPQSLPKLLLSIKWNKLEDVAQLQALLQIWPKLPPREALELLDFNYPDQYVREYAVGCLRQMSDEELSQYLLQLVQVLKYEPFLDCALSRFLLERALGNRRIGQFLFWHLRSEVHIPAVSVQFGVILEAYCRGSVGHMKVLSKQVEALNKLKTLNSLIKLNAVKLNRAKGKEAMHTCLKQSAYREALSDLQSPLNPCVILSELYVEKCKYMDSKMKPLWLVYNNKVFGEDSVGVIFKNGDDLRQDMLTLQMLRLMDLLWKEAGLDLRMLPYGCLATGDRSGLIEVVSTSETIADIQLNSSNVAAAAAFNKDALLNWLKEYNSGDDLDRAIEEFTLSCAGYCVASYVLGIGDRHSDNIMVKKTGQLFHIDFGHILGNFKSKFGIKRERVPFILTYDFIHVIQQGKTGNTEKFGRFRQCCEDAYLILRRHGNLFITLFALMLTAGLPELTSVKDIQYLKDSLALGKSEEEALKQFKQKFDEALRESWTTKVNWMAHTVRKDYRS
T2 sequence (P27986 whole entry partner): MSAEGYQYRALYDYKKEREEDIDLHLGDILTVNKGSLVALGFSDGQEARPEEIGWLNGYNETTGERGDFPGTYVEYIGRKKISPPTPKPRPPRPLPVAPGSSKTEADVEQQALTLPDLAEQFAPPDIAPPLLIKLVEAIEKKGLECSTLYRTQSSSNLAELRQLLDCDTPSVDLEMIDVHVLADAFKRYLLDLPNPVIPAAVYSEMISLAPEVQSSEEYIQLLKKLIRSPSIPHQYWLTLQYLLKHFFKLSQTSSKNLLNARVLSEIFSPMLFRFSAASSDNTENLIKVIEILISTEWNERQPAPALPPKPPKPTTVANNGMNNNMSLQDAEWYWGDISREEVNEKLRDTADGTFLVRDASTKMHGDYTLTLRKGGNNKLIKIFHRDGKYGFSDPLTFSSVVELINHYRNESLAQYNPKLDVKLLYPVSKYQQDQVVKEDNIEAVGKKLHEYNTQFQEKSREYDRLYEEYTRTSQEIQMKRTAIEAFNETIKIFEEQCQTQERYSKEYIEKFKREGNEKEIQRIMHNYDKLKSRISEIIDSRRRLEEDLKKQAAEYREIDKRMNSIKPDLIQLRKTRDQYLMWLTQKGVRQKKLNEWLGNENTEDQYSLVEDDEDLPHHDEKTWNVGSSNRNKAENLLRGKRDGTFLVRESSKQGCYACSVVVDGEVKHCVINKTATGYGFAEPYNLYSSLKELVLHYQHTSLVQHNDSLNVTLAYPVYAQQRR
Put plainly: In vitro PI3 kinase enzyme assay (beta), ATP loss, bioluminescence.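 Also: purified p110β/p85 heterodimer with PtdIns(4,5)P2 as acceptor, incubated at room temperature, leftover ATP read by luminescence, inhibition scaled to compound-free wells with and without enzyme.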 The class given is biochemical. The conditions noted are these: read-out: PI3Kβ ATP loss IC50.

T1 sequence (P42336 whole entry, species assumed): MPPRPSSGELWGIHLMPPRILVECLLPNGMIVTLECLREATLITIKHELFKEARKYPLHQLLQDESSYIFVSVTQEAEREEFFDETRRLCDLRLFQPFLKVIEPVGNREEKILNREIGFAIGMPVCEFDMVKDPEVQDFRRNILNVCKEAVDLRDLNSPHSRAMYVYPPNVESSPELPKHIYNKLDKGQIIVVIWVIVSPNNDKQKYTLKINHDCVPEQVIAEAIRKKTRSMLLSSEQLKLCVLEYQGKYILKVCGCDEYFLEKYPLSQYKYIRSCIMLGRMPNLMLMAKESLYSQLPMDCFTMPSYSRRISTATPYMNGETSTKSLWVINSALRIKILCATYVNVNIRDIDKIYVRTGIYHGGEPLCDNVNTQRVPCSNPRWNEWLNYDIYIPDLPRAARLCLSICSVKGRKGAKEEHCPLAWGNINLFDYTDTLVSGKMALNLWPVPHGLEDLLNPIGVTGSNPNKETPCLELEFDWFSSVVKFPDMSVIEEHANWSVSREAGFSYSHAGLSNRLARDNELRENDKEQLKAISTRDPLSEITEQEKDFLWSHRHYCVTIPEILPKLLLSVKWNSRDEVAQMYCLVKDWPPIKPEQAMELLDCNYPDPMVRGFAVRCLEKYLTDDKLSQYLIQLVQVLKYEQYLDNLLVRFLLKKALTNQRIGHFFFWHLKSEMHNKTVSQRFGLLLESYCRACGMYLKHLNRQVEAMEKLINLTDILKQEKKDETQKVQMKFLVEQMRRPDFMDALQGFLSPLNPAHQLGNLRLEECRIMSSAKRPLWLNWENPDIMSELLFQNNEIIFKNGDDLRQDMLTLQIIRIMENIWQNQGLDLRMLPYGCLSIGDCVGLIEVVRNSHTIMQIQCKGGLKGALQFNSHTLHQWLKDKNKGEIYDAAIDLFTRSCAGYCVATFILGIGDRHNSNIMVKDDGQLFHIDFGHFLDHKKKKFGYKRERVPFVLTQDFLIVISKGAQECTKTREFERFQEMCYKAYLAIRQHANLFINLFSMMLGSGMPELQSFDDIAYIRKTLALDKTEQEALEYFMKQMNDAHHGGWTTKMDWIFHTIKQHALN
T1 sequence (P27986 whole entry partner, species assumed): as the sequence (P27986 whole entry partner) above
Experimental for PI3K α: (§1) Full length p110 subunits of PI3K α, β and δ, N-terminally labeled with polyHis tag, were co-expressed with p85 in baculovirus expression vectors in sf9 insect cells. P110/p85 heterodimers were purified by sequential Ni-NTA, Q-HP, and Superdex-100 chromatography. Purified α, β and δ isozymes were stored at −20° C. in 20 mM Tris, pH 8, 0.2M NaCl, 50% glycerol, 5 mM DTT, 2 mM Na cholate.
(§2) PI3K enzyme assays (alpha, beta, delta and gamma) were performed in 25 mL with the above final concentrations of components in white polypropylene plates (Costar catalogue #3355). Phosphatidyl inositol phosphoacceptor, PtdIns(4,5)P2 (eg. P4508) was obtained from Echelon Biosciences. The ATPase activity of the alpha and gamma isozymes was not greatly stimulated by PtdIns(4,5)P2 under these conditions and was therefore omitted from the assay of these isozymes. Test compounds were dissolved in DMSO and diluted with three-fold serial dilutions. The compound in DMSO (1 μL) was added per test well, and the inhibition relative to reactions containing no compound, with and without enzyme was determined. After assay incubation at RT, the reaction was stopped and residual ATP determined by addition of an equal volume of a commercial ATP bioluminescence kit (Perkin Elmer EasyLite) according to the manufacturer's instructions, and detected using an Analyst GT luminometer.
Experimental for PI3K β: as §1, §2

The term IC50 denotes the concentration that inhibits the measured activity by half. In the case of `CC(=O)Nc1nc2ccc(-c3cnc(Cl)c(O[C@H]4CCOC4)c3)cc2s1` [Example 236, N-(6-(6-chloro-5-((S)-tetrahydrofuran-3-yloxy)pyridin-3-yl)benzo[d]thiazol-2-yl)acetamide], the results for the IC50 (in test [1]; on PI3K α; on PI3K β) were 0.828 µM, 0.15 µM and 1.37 µM, respectively.
For `CC(=O)Nc1nc2ccc(-c3cnc(Cl)c(NS(=O)(=O)c4ccc(O)cc4)c3)cc2s1` [Example 174, N-(6-(6-chloro-5-(4-hydroxyphenylsulfonamido)pyridin-3-yl)benzo[d]thiazol-2-yl)acetamide] the same measures were 0.0155 µM, 0.0072 µM and 0.0123 µM.
Consider `CC(=O)Nc1nc2ccc(-c3cncc(NS(=O)(=O)c4ccc(C(C)O)cc4)c3)cc2s1` (stereo not drawn) [Example 259, N-(6-(5-(4-(1-hydroxyethyl)phenylsulfonamido)pyridin-3-yl)benzo[d]thiazol-2-yl)acetamide], for which the IC50 was 0.388 µM in test [1], 0.0121 µM at PI3K α and 0.0322 µM on PI3K β.
On the same counts, the results for `COc1ccc(Sc2ncc(-c3ccc4nc(NC(C)=O)sc4c3)s2)cc1` [Example 62, N-(6-(2-(4-methoxyphenylthio)thiazol-5-yl)benzo[d]thiazol-2-yl)acetamide] are 2.58 µM, 0.0299 µM and 5.21 µM.
For `CC(=O)Nc1nc2ccc(-c3cnc(C)c(NS(=O)(=O)c4cccc(OC(F)F)c4)c3)cc2s1` [Example 115, N-(6-(5-(((3-(difluoromethoxy)phenyl)sulfonyl)amino)-6-methyl-3-pyridinyl)-1,3-benzothiazol-2-yl)acetamide] the same measures were 0.0307 µM, 0.0071 µM and 0.015 µM.
Consider `COCC(=O)Nc1nc2ccc(-c3cnc(Cl)c(N(C)C)c3)cc2s1` [Example 271, N-(6-(6-Chloro-5-(dimethylamino)pyridin-3-yl)benzo[d]thiazol-2-yl)-2-methoxyacetamide], for which the half-maximal inhibitory concentration (IC50) turned out to be 0.312 µM in test [1], 0.0515 µM at PI3K α and 1.23 µM on PI3K β.
For the molecule `CC(=O)Nc1nc2ccc(-c3ccnc(Sc4ccc(C)cc4)n3)cc2s1` [Example 36, N-(6-(2-((4-methylphenyl)sulfanyl)-4-pyrimidinyl)-1,3-benzothiazol-2-yl)acetamide], the results for the IC50 (in test [1]; at PI3K α; at PI3K β) were 2.32 µM, 0.0595 µM and 0.554 µM, respectively.
For `CC(=O)Nc1nc2ccc(-c3cnc(C)c(NS(=O)(=O)c4ccccc4)c3)cc2s1` [Example 110, N-(6-(6-methyl-5-(phenylsulfonamido)pyridin-3-yl)benzo[d]thiazol-2-yl)acetamide] the same measures were 0.0314 µM, 0.0038 µM and 0.0106 µM.
On the same counts, the results for `CC(=O)Nc1nc2ccc(-c3ccnc(Sc4ccccc4Cl)n3)cc2s1` [Example 125, N-(6-(2-((2-chlorophenyl)sulfanyl)-4-pyrimidinyl)-1,3-benzothiazol-2-yl)acetamide] are 0.548 µM, 0.0254 µM and 0.425 µM.
On the same counts, the results for `CC(=O)Nc1nc2ccc(-c3ccnc(OCCCc4ccccc4)n3)cc2s1` [Example 4, N-(6-(2-(3-phenylpropoxy)-4-pyrimidinyl)-1,3-benzothiazol-2-yl)acetamide] are 2.37 µM, 0.151 µM and 0.386 µM.
For the molecule `COc1ccc(S(=O)(=O)N(C)c2nccc(-c3cc(F)c4nc(NC(C)=O)sc4c3)n2)cc1` [Example 143, N-(4-fluoro-6-(2-(((4-methoxyphenyl)sulfonyl)(methyl)amino)-4-pyrimidinyl)-1,3-benzothiazol-2-yl)acetamide], the IC50 in test [1] is 0.328 µM; on PI3K α, 0.111 µM; at PI3K β, 0.109 µM.
For `CC(=O)Nc1nc2ccc(-c3ccnc(N(C)S(=O)(=O)c4ccc(C)c(C)c4)n3)cc2s1` [Example 210, N-(6-(2-(N,3,4-trimethylphenylsulfonamido)pyrimidin-4-yl)benzo[d]thiazol-2-yl)acetamide] the same measures were 0.0593 µM, 0.0147 µM and 0.0391 µM.
For `CNc1ncc(-c2ccc3nc(NC(C)=O)sc3c2)cc1NC(C)C` [Example 147, N-(6-(5-(isopropylamino)-6-(methylamino)pyridin-3-yl)benzo[d]thiazol-2-yl)acetamide] the same measures were 0.44 µM, 0.149 µM and 5.68 µM.
On the same counts, the results for `COc1ccc(S(=O)(=O)N(C)c2cncc(-c3ccc4nc(NC(C)=O)sc4c3)n2)cc1` [Example 126, N-(6-(6-(((4-methoxyphenyl)sulfonyl)(methyl)amino)-2-pyrazinyl)-1,3-benzothiazol-2-yl)acetamide] are 0.0806 µM, 0.0271 µM and 0.321 µM.
For the molecule `CC(=O)Nc1nc2ccc(-c3cncc(OCC#N)c3)cc2s1` [Example 288, N-(6-(5-(Cyanomethoxy)pyridin-3-yl)benzo[d]thiazol-2-yl)acetamide], the concentration for half-maximal inhibition (IC50) came to 0.236 µM in test [1], 0.0833 µM on PI3K α and 0.464 µM on PI3K β.
On the same counts, the results for `CC(=O)Nc1nc2ccc(-c3ccnc(NS(=O)(=O)c4ccccc4)n3)cc2s1` [Example 77, N-(6-(2-(Phenylsulfonamido)pyrimidin-4-yl)benzo[d]thiazol-2-yl)acetamide] are 2.35 µM, 0.0848 µM and 0.543 µM.
For `COc1ccncc1-c1ccc2nc(NC(C)=O)sc2c1` [Example 241, N-(6-(4-methoxypyridin-3-yl)benzo[d]thiazol-2-yl)acetamide] the same measures were 0.816 µM, 0.0735 µM and 10.7 µM.
For `CC(=O)Nc1nc2ccc(-c3cccc(N(C)S(=O)(=O)c4cccc(C)c4)n3)cc2s1` [Example 225, N-(6-(6-(N,3-dimethylphenylsulfonamido)pyridin-2-yl)benzo[d]thiazol-2-yl)acetamide] the same measures were 0.244 µM, 0.0647 µM and 0.294 µM.
Regarding `CC(=O)Nc1nc2ccc(-c3ccnc(O[C@H](C)c4ccccc4)n3)cc2s1` [Example 43, N-(6-(2-((1R)-1-phenylethoxy)-4-pyrimidinyl)-1,3-benzothiazol-2-yl)acetamide], the IC50 came out at 1.06 µM in test [1], 0.104 µM on PI3K α and 0.517 µM on PI3K β.
On the same counts, the results for `CNC(=O)Nc1nc2ccc(-c3ccnc(OCc4ccccc4)n3)cc2s1` [Example 56, 1-(6-(2-(benzyloxy)-4-pyrimidinyl)-1,3-benzothiazol-2-yl)-3-methylurea] are over 5 µM, 0.254 µM and 0.402 µM.
On the same counts, the results for `CC(=O)Nc1nc2ccc(-c3cncc(F)c3)cc2s1` [Example 289, N-(6-(5-Fluoropyridin-3-yl)benzo[d]thiazol-2-yl)acetamide] are 0.45 µM, 0.0963 µM and 3.21 µM.
On the same counts, the results for `CC(=O)Nc1nc2ccc(-c3cncc(N(C)S(=O)(=O)c4ccc(C)cc4)n3)cc2s1` [Example 127, N-(6-(6-(methyl((4-methylphenyl)sulfonyl)amino)-2-pyrazinyl)-1,3-benzothiazol-2-yl)acetamide] are 0.0581 µM, 0.0278 µM and 0.0316 µM.
For the molecule `CC(=O)Nc1nc2ccc(-c3cnc(Cl)c(NS(=O)(=O)N4CCCCC4)c3)cc2s1` [Example 316, N-(6-(6-chloro-5-((1-piperidinylsulfonyl)amino)-3-pyridinyl)-1,3-benzothiazol-2-yl)acetamide], the IC50 in test [1] came to 0.007 µM; on PI3K α, 0.0103 µM; at PI3K β, 0.0358 µM.
For `Nc1nc2ccc(-c3cnc(Cl)c(NS(=O)(=O)c4ccccc4C(F)(F)F)c3)cc2s1` [Example 314, N-(5-(2-amino-1,3-benzothiazol-6-yl)-2-chloro-3-pyridinyl)-2-(trifluoromethyl)benzenesulfonamide] the same measures were 0.205 µM, 0.0025 µM and 0.0127 µM.
On the same counts, the results for `CC(=O)Nc1nc2ccc(-c3cnc(Cl)c(NC(C)C)c3)cc2s1` [Example 132, N-(6-(6-chloro-5-((1-methylethyl)amino)-3-pyridinyl)-1,3-benzothiazol-2-yl)acetamide] are 0.316 µM, 0.0414 µM and 0.379 µM.
For `CC(=O)Nc1nc2ccc(-c3cnc(Cl)c(NS(=O)(=O)Cc4ccccc4)c3)cc2s1` [Example 188, N-(6-(6-chloro-5-(phenylmethylsulfonamido)pyridin-3-yl)benzo[d]thiazol-2-yl)acetamide] the same measures were 0.11 µM, 0.0069 µM and 0.0254 µM.
As to `COc1ncc(-c2ccc3nc(NC(C)=O)sc3c2)cc1NC(C)C` [Example 145, N-(6-(6-methoxy-5-((1-methylethyl)amino)-3-pyridinyl)-1,3-benzothiazol-2-yl)acetamide], the IC50 was determined as 0.851 µM in test [1], 0.114 µM on PI3K α and 0.424 µM on PI3K β.
For `COc1ncc(-c2ccc3nc(NC(C)=O)sc3c2)cc1N(C)C` [Example 124, N-(6-(5-(dimethylamino)-6-methoxy-3-pyridinyl)-1,3-benzothiazol-2-yl)acetamide] the same measures were 0.0666 µM, 0.0247 µM and 0.0908 µM.
